Columns and labels:
S. Hominis = assay: Growth of S. hominis in the presence of fatty acids (absorbance 620 nm growth curve); type: cell-based; conditions: saturated fatty acids, concentration per example, at the end of 24 to 30 hours, control = 100.0
Protocol: • 5% of fatty acid stock is made in DMSO-0.5 g in 10 ml of DMSO • 2.68% of fatty acid (Total volume 5 ml) is made with 2.68 ml of 5% fatty acid stock+[…] of DMSO+0.45 ml of Tween 80. • Test samples: 50 μl 2.68% stock in 4.95 ml 1/10th diluted TSB (test samples)
(§1) The microorganism (S. epidermidis or S. hominis as the case may be) was streaked on TSA agar plate and incubated at 37° C. for 24 hr
Plate cultures of the microorganism was used to set up 0.3 OD620nm (corresponding to log 10^8 CFU/ml) in 1× PBS (pH7.4)
(§2) The test samples (200 μl) were added to 96 well plate, followed by addition of above set cultures (20 μl).
(§3) The 96 well plate was placed in a Tecan reader and absorbance was read at 620 nm for a period of 24-30 h with a kinetic interval of 1 h
(§4) The values obtained is plotted as a growth curve with X-axis representing time in hour and Y-axis as absorbance read at 620 nm.
Experiments similar to those in Table-1 were carried out except that the microorganism used was S. Hominis.

S. epidermidis = assay: Growth of S. epidermidis in the presence of fatty acids (absorbance 620 nm growth curve); type: cell-based; conditions: Staphylococcus epidermidis, read-out: % increase over control; for activity at 0.01 %: oleic acid, linoleic acid at 0.01% and their combination, control = 100; for activity at 0.001 %: unsaturated fatty acids at 0.001%, at the end of 24 to 30 hours, control = 100.0
Protocol: Experiments were carried out on the growth of S. Epidermidis in the presence of various fatty acids using the following procedure.
as §1, §2, §3, §4

Compound | % increase over control (S. Hominis) [%] | activity at 0.001 % (S. epidermidis) [%] | other results
CCCCCCCCCCCCCCCCCCCCCCCC(=O)O [Example 6, lignoceric acid] | 153.0 | – | –
CCCCC/C=C\C/C=C\CCCCCCCC(=O)O [Example 12, Linoleic acid] | – | – | activity at 0.01 % (S. epidermidis): 132%
CCCCCCCCCCCCCC(=O)O [E, myristic acid] | 52.0 | – | –
CCCCCCCCCCCCCCCC(=O)O [Example F, palmitic acid] | 104.0 | – | –
CCCCCCCC/C=C\CCCCCCCC(=O)O [Example 11, Oleic acid] | – | – | activity at 0.01 % (S. epidermidis): 135%
CCCCCC/C=C\CCCCCCCC(=O)O [Example G, Palmitoleic acid, reference compound] | – | 98.4 | –
CCCCCCCC/C=C\CCCCCCCC(=O)O [Example 7, Oleic acid] | – | 132 | –
CCCCC/C=C\C/C=C\CCCCCCCC(=O)O [Example 8, Linoleic acid] | – | 146 | –
CCCCCCCCCCCC(=O)O [D, Lauric acid] | 63.0 | – | –
CCCCCCCCCCCCCCCCCCCC(=O)O [Example 5, arachidic acid] | 123.0 | – | –
